Results as given in patent US11851459B2, “Methods and uses of modulators of anaphase promoting complex (APC) activity for treating cancer” (University of Saskatchewan, priority 2018, dated 2023).
Entries after “also recorded” stand apart in the source; their conditions may differ.

What was measured:
MDA-MB-231 cells [1] = test: Scratch assay, migration of MDA-MB-231 cells; assay type: cell-based, human
Description: A. An equal number of MDA-MB-231 TNBC cells were grown to confluence in 6 well plates. The cells were then treated with increasing doses of metformin (0, 1, 5 and 10 mM) and a scratch was made in the cell lawn creating a void. At the times shown the number of cell that migrated into the void were counted. The experiment was repeated twice. B. WT MDA-MB-231 cells and cells stably expressing the C43-4 plasmid were grown as in A. Control cells were left untreated, with other cells treated with the DMSO control, 1 uM DOX or 2.5 uM M2I-1. A void was created in the cell lawn and the number of cells that entered the void were scored as above. This experiment was repeated 4 times. This experiment was also repeated 4 times in an independently generated stable C43-4 cell line with similar results. The error of the mean is shown. C. WT and MDA-MB-231 cells stably expressing the C2-4B peptide plasmid were used for the scratch assay as described above. D. WT and MDA-MB-231 cells stably expressing the C13-3 peptide plasmid were used for the scratch assay as described above. The experiments in C and D were only performed once.
Assays using WT and C43-4 expressing cells have been done 4 times. Assays using C13-3 and C2-4B cells have only been conducted once. Metformin treated cells have been used twice. For scratch assays, a scratch is made down a confluent plate of cells, leaving a void. The number of cells that migrate back into the void over time is determined.

Apc5 = molecular target: T1, Apc5 (Saccharomyces cerevisiae, UniProt Q08683); test: Yeast 2-hybrid (Y2H) assay, Apc5 bait; assay type: binding
T1 construct: expressed in transfected cells; host or cells: yeast Y2H cells
T1 sequence (Q08683 1-685): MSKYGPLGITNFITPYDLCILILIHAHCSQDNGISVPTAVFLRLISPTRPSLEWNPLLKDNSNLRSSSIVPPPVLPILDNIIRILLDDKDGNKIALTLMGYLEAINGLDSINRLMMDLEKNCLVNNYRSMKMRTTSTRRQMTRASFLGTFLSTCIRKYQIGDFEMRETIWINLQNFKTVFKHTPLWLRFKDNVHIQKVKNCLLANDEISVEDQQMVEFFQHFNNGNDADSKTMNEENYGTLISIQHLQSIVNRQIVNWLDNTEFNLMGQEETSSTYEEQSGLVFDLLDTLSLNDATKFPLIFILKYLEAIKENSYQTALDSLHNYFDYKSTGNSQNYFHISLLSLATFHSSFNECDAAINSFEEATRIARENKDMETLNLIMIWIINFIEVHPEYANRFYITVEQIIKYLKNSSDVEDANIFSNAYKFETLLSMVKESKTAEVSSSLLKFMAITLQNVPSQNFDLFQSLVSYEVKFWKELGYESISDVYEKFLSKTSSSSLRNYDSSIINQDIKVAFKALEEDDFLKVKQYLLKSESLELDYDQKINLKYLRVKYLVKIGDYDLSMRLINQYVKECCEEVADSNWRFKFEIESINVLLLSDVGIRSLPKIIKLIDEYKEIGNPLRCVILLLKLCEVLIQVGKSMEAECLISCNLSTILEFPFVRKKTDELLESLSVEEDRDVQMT
Description: (§1) The reverse genetic screen utilized a yeast 2-hybrid (Y2H) protocol that selected for peptides that bound to the APC subunits Apc5 or Apc10 (see FIG. 8 for APC structure), to assess whether peptide-binding might modify APC function. Peptides that bound APC subunits were then assayed for those that suppressed APC mutant defects.
(§2) To identify peptides that bound to either Apc5 or Apc10 proteins using a yeast 2-hybrid (Y2H) screen, random small peptides were cloned into the TrxA scaffold (library provided by R. Geyer; FIG. 9) and expressed from a galactose-inducible Y2H prey vector in cells harboring either the APC5 or APC10 genes cloned into the Y2H bait vectors (APC5/APC10 bait constructs complement APC mutant defects).
(§3) Over 100 peptides that bound either Apc5 or Apc10 were recovered from millions screened. Six peptides that reproducibly interacted with the Apc5 or Apc10 bait construct in Y2H assays were examined further. Vectors expressing these 6 peptides were transformed into WT or APC mutant cells and assessed for ts growth.

[2] = test system: apc5 temperature sensitive mutant and/or apc10Δ mutant; test: Viability of APC mutant yeast (spot dilution); assay type: cell-based
Excerpt: Suitable APC activators also include APC activators that increase the cell viability of an wild-type and/or an APC mutant cell by at least 10%, at least 20%, at least 30%, at least 40%, at least 50%, at least 60%, at least 70% or at least 80% compared to a cell with wild-type APC function. […] Examples of yeast cells with defective APC function include apc5 and apc10 mutants. An example of an apc5 mutant is the apc5 temperature sensitive mutant described herein. An example of an apc10 mutant is the apc10 deletion mutant described herein. Viability of a yeast mutant can be measured for example, by the spot dilution assays described herein or any other method known in the art.
as §1, §3

[3] = test system: APC (substrates Cyclin B, Securin, Cdc20, HURP); test: APC substrate westerns in MDA-MB-231 cells expressing peptides; assay type: cell-based, human; conditions: for levels of the APC substrate HURP: MDA-MB-231 stably transfected, normalized to tubulin; for levels of the APC substrate CDC20: MDA-MB-231 stably expressing peptides
Description: (§4) A. Transient transfection of the C43-4 peptide plasmid into human triple negative MDA-MB-231 breast cancer cells followed by Western blot analysis of lysates against Cyclin B, Securin and Cdc20 showing enhanced protein loss. B. Cells in A were treated with DOX (1 uM) for 48 hrs with cell viability measured using an MTT assay kit. The experiment was done in triplicate with standard error of the means shown.
(§5) A. Stable integration of C43-4 in MDA-MB-231 cells was established by selection of transfected cells on Geneticin for 7 days. Westerns against APC substrates show APC activation. B. Cells in A were treated with DOX (1 uM) for 48 hrs with cell viability measured using an MTT assay kit. Mean and SEM of 3 biological repeats.
(§6) A. TNBC MDA-MB-231 cells stably expressing APC binding peptides activate the APC. Cells were grown to confluence and then used to prepare protein lysates. The lysates were used to measure levels of the APC substrate CDC20, which will be reduced if the APC is activated. Cells stably expressing the pcDNA empty vector were used as a control. B. In a similar experiment, MDA-MB-231 cells stably expressing the APC binding peptides shown, or the empty vector control, were used to measure protein levels of the APC substrate HURP using Westerns. C. Triplicate blots as in B were scanned, normalized to tubulin and plotted. Error of the mean is shown. Significant changes are indicated. D. MDA-MB-231 cells stably expressing the empty pcDNA vector, or the C43-4 and C13-3 APC binding peptides, were treated with 1 μM Doxorubicin for 24 hrs. Cell viability was measured using an MTT viability assay.
The C43-4 peptide sequence was cloned into the human expression vector pcDNA. This construct was transiently, and stably, expressed in human breast cancer cell line MDA-MB-231. […] In 231 cells, which are triple negative, aggressive and somewhat resistant to Doxorubicin, the transiently and stably transfected C43-4 peptide resensitized them to DOX treatment (FIGS. 22B and 23B).
(§7) In FIG. 26B, MDA-MB-231 cells were also stably transfected with the peptides C1-8, C2-4B, C3-1B, and C9-5. Levels of the APC substrate HURP were measured in lysates prepared from these cells. […] The empty vector pcDNA was also stably expressed in 231 cells and used as a control.

MDA-MB-231 cells [4] = test: DOX sensitivity, MTT viability assay, MDA-MB-231 cells expressing peptides; assay type: cell-based, human; conditions: stably transfected, 1 uM Doxorubicin 24 hours
Description: as §4, §5, §6, §7

Apc10 = molecular target: T2, Apc10 (Saccharomyces cerevisiae, UniProt P53068); test: Yeast 2-hybrid (Y2H) assay, Apc10 bait; assay type: binding
T2 construct: expressed in transfected cells; host or cells: yeast Y2H cells
T2 sequence (P53068 1-250): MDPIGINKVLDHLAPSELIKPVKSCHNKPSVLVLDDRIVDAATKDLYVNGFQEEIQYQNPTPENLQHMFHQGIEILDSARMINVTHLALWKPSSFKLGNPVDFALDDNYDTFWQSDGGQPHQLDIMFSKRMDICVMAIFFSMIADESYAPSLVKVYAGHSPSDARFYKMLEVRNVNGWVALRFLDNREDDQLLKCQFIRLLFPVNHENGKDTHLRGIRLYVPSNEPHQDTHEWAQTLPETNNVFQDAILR
Description: as §1
A library of random small peptides were cloned into a Thioredoxin (Trx) scaffold (see FIG. 9 for Trx-peptide structure) and expressed from a galactose-inducible Y2H prey vector in cells expressing the Apc10 bait vector (the modified Apc10 is still part of the complete APC complex). Six peptides that reproducibly interacted with the Apc10 bait construct in Y2H assays were identified (FIG. 1A) and were examined further. Cells will only grow in this assay if the peptide interacts with Apc5 or Apc10.
as §2, §3

APC = test: Yeast 2-hybrid assay for binding the APC
Description: as §1, §2

[5] = test system: apc5^CA temperature sensitive mutant; test: Forward genetic screen, rescue of apc5^CA ts growth; assay type: cell-based, yeast; conditions: restrictive temperature
Excerpt: Using a forward genetic screen to test whether temperature sensitive (ts) APC mutants expressing random small peptides could grow at restrictive temperatures, millions of small peptides were rapidly screened for those that could restore mutant APC phenotypes. Peptides that rescued the apc5^CA ts (temperature sensitive) defect were recovered including peptides Y65 and Y36.
In the forward screens, with galactose-inducible TrxA-based peptide libraries, in cells harboring the apc5^CA ts allele, over 200 peptides (from millions screened) suppressed the ts phenotype. Several recovered plasmids were sequenced.

Cin5 = molecular target: T3, Cin5 (Saccharomyces cerevisiae, UniProt P40917); test: Yeast 2-hybrid with Y65 as bait to identify binding partners
T3 construct: expressed in transfected cells; host or cells: yeast Y2H cells
T3 sequence (P40917 1-295): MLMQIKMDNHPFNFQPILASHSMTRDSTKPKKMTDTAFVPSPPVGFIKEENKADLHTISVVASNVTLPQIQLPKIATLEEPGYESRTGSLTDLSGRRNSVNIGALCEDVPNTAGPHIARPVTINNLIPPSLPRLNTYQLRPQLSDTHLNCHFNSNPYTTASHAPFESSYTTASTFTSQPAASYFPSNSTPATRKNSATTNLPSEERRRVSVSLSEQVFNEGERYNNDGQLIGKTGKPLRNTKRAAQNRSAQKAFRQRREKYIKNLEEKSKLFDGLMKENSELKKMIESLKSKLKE
Excerpt: One peptide in particular, Y65, was of interest because it had homology to Elongin C (Elc1; Y65 is 20 amino acids in length, with a 7 residue stretch sharing 86% identity and 100% similarity with Elc1). Elc1 is a ubiquitin-protein ligase (E3) conserved among eukaryotes that is involved in DNA repair (Harreman et al, 2009; Ribar et al, 2007). To identify what the peptides bound in order to modify APC activity, Y65 was cloned into the Y2H bait vector and used to identify binding partners.

Compound | binds Apc5 in a yeast 2 hybrid assay (Apc5) | viability of an APC mutant [2] | levels of the APC substrate HURP [3] | binds Apc10 in a yeast 2 hybrid assay (Apc10) | also measured
COc1cccc2c1C(=O)c1c(O)c3c(c(O)c1C2=O)C[C@@](O)(C(=O)CO)C[C@@H]3O[C@H]1C[C@H](N)[C@H](O)[C@H](C)O1 [Doxorubicin, reference compound] |  |  |  |  | metastatic potential / in vitro migration (MDA-MB-231 cells [1]): blocked
CECLETETFHPITRHLIVPV [C9-5] | Binds Apc5 | increases the viability of an APC mutant | Only C1-8 did not reduce HURP levels |  | 
FCL (FLC) [C1-8] |  |  | did not reduce |  | 
GALKEVCICIVESVGGEVFS [C13-3] | Binds Apc5 | increases the viability of an APC mutant |  |  | levels of the APC substrate CDC20 [3]: reduce levels; synergy with Doxorubicin (killing effect) (MDA-MB-231 cells [4]): synergize; metastatic potential / in vitro migration (MDA-MB-231 cells [1]): inhibit the in vitro migration
PSYNTIKYHETHGGRHPRRQRKRPI [C3-1] |  | increases the viability of an APC mutant |  | Binds Apc10 | levels of the APC substrate CDC20 [3]: reduce levels
PVNGERWAP [C3-1B] |  |  | Only C1-8 did not reduce HURP levels | Binds Apc10 | 
RRCLSIRTENLAWEGKFLRV [C50-1] |  | increases the viability of an APC mutant |  | Binds Apc10 | 
SKWTWRMCMSWTVDRFAPVPWP [C24-1] | Binds Apc5 | increases the viability of an APC mutant |  |  | 
SWLNGSGGVVLWLFSNFCCG [Y36] |  |  |  |  | bind the APC in a yeast 2HY assay (APC): not bind the APC in a yeast; apc5^CA temperature sensitive (ts) growth / viability [5]: increases the viability; also recorded: rescued; also recorded: Rescues apc5^CA temperature
VRQKSDKEYERVLGLGLRRL [Y65] |  |  |  |  | bind the APC in a yeast 2HY assay (APC): not bind the APC in a yeast; Interacts with Cin5 in a yeast 2 hybrid assay (Cin5): One peptide binding partner was isolated, Cin5; apc5^CA temperature sensitive (ts) growth / viability [5]: increases the viability; also recorded: rescued; also recorded: Rescues apc5^CA temperature
